Patent US6518423B1, “Benzopiperidine derivatives” (Eisai Co., Ltd., priority 1996, dated 2003)

Row | SMILES | melting point
1 | CC(C)c1nccn1Cc1ccc2c(c1)Nc1nccnc1S2 | 241 to 242 °C
2 | O=C(c1ccccn1)c1nccn1Cc1ccc2c(c1)Nc1nccnc1S2 | 191 to 193 °C
3 | c1cc(-c2cn(Cc3ccc4c(c3)Nc3nccnc3S4)cn2)ccn1 | 157 to 158 °C
4 | CCOC(=O)/C=C/c1nccn1Cc1ccc2c(c1)Nc1nccnc1S2 | 213 to 215 °C
5 | CS(=O)(=O)N=CNc1ccc(-c2cn(Cc3ccc4c(c3)Nc3nccnc3S4)cn2)cc1 | 159 to 162 °C
6 | c1cn(CCCc2ccc3c(c2)Nc2nccnc2S3)cn1 | 139 to 141 °C
7 | O=c1c2ccccc2[nH]n1Cc1ccc2c(c1)Nc1nccnc1S2 | > 275 °C
8 | FC(F)(c1cccnc1)c1ccc2c(c1)Nc1nccnc1S2 | 183 to 184 °C
9 | O=C(O)CSc1ccc(C(O)c2ccc3c(c2)Nc2nccnc2S3)cn1 (stereo not shown) | 65 to 70 °C
10 | O=C(O)C1CC2CCC(C1)N2Cc1ccc2c(c1)Nc1nccnc1S2 (stereo not shown) | 158 °C (dec.)
11 | CN1CC2CN(Cc3ccc4c(c3)Nc3nccnc3S4)CC(C1)C2CC(=O)O (stereo not shown) | 220 °C (dec.)
12 | CC(C)(O)CC1C2CCCC1CN(Cc1ccc3c(c1)Nc1nccnc1S3)C2 (stereo not shown) | 182 to 185 °C
13 | COCc1ccc2c(c1)Nc1nccnc1S2 | 189 to 192 °C
14 | CS(=O)(=O)NC(=O)Cc1ccc2c(c1)Nc1nccnc1S2 | 236 to 238 °C
15 | c1cnc2c(n1)Nc1cc(Cn3cnc4cncnc43)ccc1S2 | 264 to 265 °C
16 | c1cnc2c(n1)Nc1cc(Cn3cnc4ncncc43)ccc1S2 | 277 to 280 °C
17 | CN(C)c1ncnc2c1[nH]c(=O)n2Cc1ccc2c(c1)Nc1nccnc1S2 | > 280 °C
18 | Cc1nc2ncncc2n1Cc1ccc2c(c1)Nc1nccnc1S2 | > 275 °C
19 | O=C(O)CCCCCCCCCCSc1ncnc2ncn(Cc3ccc4c(c3)Nc3nccnc3S4)c12 | 166 to 170 °C
20 | CCOC(=O)CCCCCSc1ncnc2c1ncn2Cc1ccc2c(c1)Nc1nccnc1S2 | 78 to 79 °C
21 | N/C(Cc1ccc2c(c1)Nc1nccnc1S2)=N\S(N)(=O)=O | > 260 °C (dec.)
22 | CC(=O)N1CCN(C(=N)Cc2ccc3c(c2)Nc2nccnc2S3)CC1.Cl | 268 to 269 °C
23 | CNC(Cc1ccc2c(c1)Nc1nccnc1S2)=NC#N | 233 to 234 °C (dec.)
24 | CCOC(=O)CCCNC(Cc1ccc2c(c1)Nc1nccnc1S2)=NC#N | 154 to 155 °C
25 | N#CN=C(N)NCc1ccc2c(c1)Nc1nccnc1S2 | 246 to 248 °C

Row | SMILES | melting point
26 | N/C(=N\[N+](=O)[O-])NCc1ccc2c(c1)Nc1nccnc1S2 | 226 to 228 °C
27 | COC(=O)CC1C2CCCC1CN(Cc1ccc3c(c1)Nc1nccnc1S3)C2 (stereo not shown) | 127 to 129 °C
28 | O=c1ccn(Cc2ccc3c(c2)Nc2ccncc2S3)cc1 | 168 °C (dec.)
29 | NC(=O)C1CCN(Cc2ccc3c(c2)Nc2nccnc2O3)CC1 | 287 to 288 °C
30 | O=c1ccccn1Cc1ccc2c(c1)Nc1nccnc1S2 | 260 to 261 °C
31 | O=c1ccn(Cc2ccc3c(c2)Nc2nccnc2S3)cc1 | > 275 °C
32 | CS(=O)(=O)/N=C/N1CCN(Cc2ccc3c(c2)Nc2nccnc2S3)CC1 | 212 to 214 °C
33 | CNS(=O)(=O)N1CCN(Cc2ccc3c(c2)Nc2nccnc2S3)CC1 | 208 to 210 °C
34 | CS(=O)(=O)/N=C(\N)C1CCN(Cc2ccc3c(c2)Nc2nccnc2S3)CC1 | 204 to 209 °C
35 | CNS(=O)(=O)NC1CCN(Cc2ccc3c(c2)Nc2nccnc2O3)CC1 | 219 to 222 °C
36 | O=C1OCCC1=C1CCN(Cc2ccc3c(c2)Nc2nccnc2S3)CC1 | 159 to 162 °C
37 | OCC(O)C1CCN(Cc2ccc3c(c2)Nc2nccnc2S3)CC1 (stereo not shown) | 182 to 185 °C
38 | CON=C1CCN(Cc2ccc3c(c2)Nc2nccnc2S3)CC1 | 142 to 143 °C
39 | Nc1c(N2CCN(Cc3ccc4c(c3)Nc3nccnc3S4)CC2)c(=O)c1=O | 285 to 288 °C (dec.)
40 | OC1CC2CN(Cc3ccc4c(c3)Nc3nccnc3S4)CC2C1 (stereo not shown) | 192 to 195 °C
41 | OCCC12CCN(Cc3ccc4c(c3)Nc3nccnc3S4)CC1C2 (stereo not shown) | 57 to 60 °C
42 | c1cnc2c(n1)Nc1cc(CN3CCC3)ccc1S2 | 158 to 161 °C
43 | c1cnc2c(n1)Nc1cc(CN3CCc4sccc4C3)ccc1S2 | 182 to 184 °C
44 | CNS(=O)(=O)CCC1CCN(Cc2ccc3c(c2)Nc2nccnc2S3)CC1 | 195 to 198 °C
45 | COCN1c2cc(C(=O)OC)ccc2Sc2nccnc21 | 151 to 152 °C
46 | O=C(CN1CCC(C(=O)O)CC1)NCc1ccc2c(c1)Nc1nccnc1S2 | 226 to 230 °C (dec.)
47 | O=C(O)CC1CC(C2CCN(Cc3ccc4c(c3)Nc3nccnc3S4)CC2)C1 (stereo not shown) | 215 to 220 °C
48 | N#CC(CCC(=O)O)=C1CCN(Cc2ccc3c(c2)Nc2nccnc2S3)CC1 | 114 to 116 °C
49 | O=C(O)/C=C1/CCCN(Cc2ccc3c(c2)Nc2nccnc2S3)C1 | 216 to 220 °C
50 | O=C(O)c1ccc(C2CCN(Cc3ccc4c(c3)Nc3nccnc3S4)CC2)cc1 | 265 to 268 °C

Row | SMILES | melting point
51 | O=C(O)CCC(=O)N1CCN(Cc2ccc3c(c2)Nc2nccnc2S3)CC1 | 240 to 242 °C
52 | O=C(O)C1CN(Cc2ccc3c(c2)Nc2nccnc2S3)C1 | 181 to 183 °C
53 | CCC1(CC(=O)O)CCN(Cc2ccc3c(c2)Nc2nccnc2S3)CC1 | 225 to 226 °C
54 | O=C([O-])C12CC[N+](Cc3ccc4c(c3)Nc3nccnc3S4)(CC1)CC2 | 229 to 230 °C
55 | O=C(O)C1C2CN(Cc3ccc4c(c3)Nc3nccnc3S4)CC21 (stereo not shown) | > 275 °C
56 | CC1CN(Cc2ccc3c(c2)Nc2nccnc2S3)CC(C)C1CC(=O)O (stereo not shown) | 200 °C (dec.)
57 | O=C(O)Cc1ccc(OCC2CCN(Cc3ccc4c(c3)Nc3nccnc3S4)CC2)cc1 | 225 to 230 °C
58 | CC(CCC1CCN(CCc2ccc3c(c2)Nc2nccnc2S3)CC1)C(=O)O (stereo not shown) | 229 to 230 °C (dec.)
59 | O=C(O)C=C1C2CCCC1CN(Cc1ccc3c(c1)Nc1nccnc1S3)C2 | 253 to 255 °C
60 | O=C(O)C1CCN(CCCc2ccc3c(c2)Nc2nccnc2S3)CC1 | 262 to 264 °C
61 | CC(CCC1CCN(C(=O)NCc2ccc3c(c2)Nc2nccnc2S3)CC1)C(=O)O (stereo not shown) | 94 to 98 °C
62 | O=C(O)c1ccc(CC2CCN(Cc3ccc4c(c3)Nc3nccnc3S4)CC2)cc1 | 158 to 161 °C
63 | O=C(O)CSCC1CCN(Cc2ccc3c(c2)Nc2nccnc2S3)CC1 | 110 to 113 °C
64 | COCN1c2ccc(OC)cc2Nc2nccnc21 | 244 to 251 °C
65 | CN1c2cc(C#N)ccc2Nc2nccnc21 | > 275 °C
66 | CCOC(=O)/C=C/c1ccc2c(c1)Nc1nccnc1N2C | 190 to 191 °C
67 | OC/C=C/CN1c2ccccc2Nc2nccnc21 | 197 to 199 °C
68 | CC(=O)NCc1ccc2c(c1)Nc1nccnc1N2C | 247 to 249 °C
69 | CCOC(=O)C#Cc1ccc2c(c1)Nc1nccnc1N2C | 232 to 235 °C
70 | Cc1cccc2c1Sc1nccnc1N2 | 165 to 166 °C
71 | c1ccc(NCc2ccc3c(c2)Nc2nccnc2S3)nc1 | 208 to 212 °C
72 | c1cnc2c(n1)Nc1cc(CNCC3CCNCC3)ccc1S2 | 173 to 175 °C
73 | CCOC(=O)CSc1ccc(NCc2ccc3c(c2)Nc2nccnc2S3)cn1 | 118 to 122 °C
